Experimental findings from patent US5455234A, “Inhibition of hair growth” (priority 1994, dated 1995) are described below.

The subject of test [1] is flank organs of Golden Syrian hamsters (androgen-stimulated hair growth). Description: Golden Syrian hamster assay (flank organ hair mass after topical application). Type of test: in vivo. An excerpt:
Male intact Golden Syrian hamsters are considered acceptable models for human beard hair growth in that they display oval shaped flank organs, one on each side, each about 8 mm. in major diameter, which grow thick black and coarse hair similar to human beard hair. These organs produce hair in response to androgens in the hamster. To evaluate the effectiveness of a composition including an inhibitor, the flank organs of each of a group of hamsters are depilated by applying a thioglycolate based chemical depilatory (Surgex). To one organ of each animal 25 μl. of vehicle alone once a day is applied, while to the other organ of each animal an equal amount of vehicle containing an inhibitor of a cysteine synthetic pathway enzyme is applied. After thirteen applications (one application per day for five days a week), the flank organs are shaved and the amount of recovered hair (hair mass) from each is weighed. Percent-reduction of hair growth is calculated by subtracting the hair mass (mg) value of the test compound treated side from the hair mass value of the vehicle treated side; the delta value obtained is then divided by the hair mass value of the vehicle treated side, and the resultant number is multiplied by 100.
The above-described assay will be referred to herein as the "Golden Syrian hamster" assay.

Test [2] has as its system cysteine synthetic pathway intermediates in flank organ hair follicles. Description: Amino acid analysis of hamster flank organ hair follicles (Pico-Tag). In kind it is in vivo. Particulars: hair follicles of treated flank organs, vehicle A. The method, then:
Hair follicles were isolated from the flank organs which were treated with either an inhibitor of a cysteine pathway enzyme or the carrier without the inhibitor (the control). L-Cystathiorine, homocysteine, and S-adenosyl homocysteine, which are involved in a pathway leading to cysteine synthesis, were measured by an amino acid analysis method. The amino analysis of hamster flank organ hair follicles was carried out using a commercially available system (Pico-Tag; Waters Associates, Inc., Milford, Mass.). Hair follicle amino acids were extracted with 0.1N HCL, an derivatized with phenylisothiocyanate to yield the phenylthiohydantion derivatives of the respective amino acids, which were then separated by C-18 reverse phase chromatography, and quantitated by in-line UV spectrophotometry.
More specifically, 250-500 μl of 0.1N HCL was added to each flank organ hair follicle sample, followed by treatment with a sonicator device to obtain cell extracts. The cell extracts were centrifuged at 12,000×gfor 5 min, and the recovered supernatant was filtered through 0.45μ filter. The filtrate was vacuum dried under nitrogen using the Pico-Tag work station. Samples were then derivatized with phenylisothiocyanate reagent by the procedure described in the Waters Associates Pico-Tag manual. An aliquot of the derivatized sample was injected on a C-18 reverse phase column (Pico-Tag column) and the elution was carried out with a gradient buffer system. This procedure separated the amino acids L-cystathionine, homocysteine, and S-adenosyl homocysteine from other amino acids present in hair follicle extracts. The amino acid concentrations were determined at UV wavelength 254 nm using an in-line spectrophotometer and a dedicated HPLC control and data analysis system (Waters Associates).

Where [3] appears, read: topical, dose 20%, vehicle A, pH 7.5, 13 applications.
Setting [4] is: topical, dose 15%, vehicle B, pH 9.5, 13 applications.
[5] abbreviates: Table 2, topical, dose 0.25%, vehicle A, pH 4.5.
The mark [6] stands for this setting: Table 2, topical, dose 0.50%, vehicle A, pH 5.0.
Setting [7] is: Table 2, topical, dose 1.00%, vehicle A, pH 5.0.
Where [8] appears, read: Table 2, topical, dose 5.00%, vehicle A, pH 5.0.
Setting [9] is: topical, dose 5%, vehicle A, pH 4.5, 13 applications.
Where [10] appears, read: topical, dose 20%, vehicle A, pH 7.0, 13 applications.
Where [11] appears, read: topical, dose 10%, vehicle A, pH 4.5, 13 applications.
The mark [12] stands for this setting: topical, dose 20%, vehicle A, pH 8.5, 13 applications.
Setting [13] is: topical, dose 15%, vehicle A, pH 8.0, 13 applications.

For `NC(C(=O)O)C(F)(F)F` (racemic) [3,3,3,-Trifluoro-DL-alanine], in test [1] (setting [3]), the “Hair Mass Treated (mg mean ± SEM)” value was determined as 1.110 ± 0.13 mg and the “Percent Inhibition (mean ± SEM)” value came out at 32.36 ± 8.01%.

Consider `C#CCC(N)C(=O)O` (racemic) [DL-Propargylglycine, D,L-2-amino-4-pentynoic acid], for which, in test [1] (setting [4]), the “Hair Mass Treated (mg mean ± SEM)” value is recorded as 1.401 ± 0.14 mg and the “Percent Inhibition (mean ± SEM)” value was 33.12 ± 5.59%.

With `Nc1nccc2c1ncn2[C@@H]1C=C(CO)[C@@H](O)[C@H]1O` [3-Deazaneplanocin], the “L-Cystathionine, Percent of Untreated Control (100%)” value (“L-Cystathionine, Percent … (100%)” for short) in test [2] (dose 0.125%, pH 4.5) came out at 49%; in test [2] (dose 0.250%, pH 4.5) it was 29%; in test [2] (dose 0.500%, pH 4.5), 12%. The “S-Adenosyl Homocysteine, Percent of Untreated Control (100%)” value stood at 144% in test [2] (dose 0.125%, pH 4.5); 149% in test [2] (dose 0.250%, pH 4.5); 218% in test [2] (dose 0.500%, pH 4.5). Besides, the “Hair Mass Treated” value in test [1] (setting [5]) amounted to 1.889 ± 0.15 mg; in test [1] (setting [6]), 1.487 ± 0.16 mg; in test [1] (setting [7]), 1.113 ± 0.08 mg; in test [1] (setting [8]) it was 0.357 ± 0.15 mg. Further, the “Percent Inhibition (mean ± SEM)” value in test [1] (setting [5]) was 14.82 ± 5.45%; in test [1] (setting [6]), 35.49 ± 4.62%; in test [1] (setting [7]), 50.94 ± 4.77%; in test [1] (setting [8]), 86.65 ± 4.81%; in test [1] (setting [9]), 86.65 ± 4.81%. The “dose dependence of inhibition in hair growth” value in test [1] (topical application, dosage levels 0.25% to 5.00%) is reported as “increased dosage level of the inhibitor provided an increased inhibition in hair growth”. In addition, in test [1] (setting [9]), the “Hair Mass Treated (mg mean ± SEM)” value is on record as 0.357 ± 0.15 mg.

With `CC(=O)OC[C@H]1O[C@@H](n2ncc(=O)[nH]c2=O)[C@H](OC(C)=O)[C@@H]1OC(C)=O` [6-Azauridine-2',3',5'-triacetate], the “L-Cystathionine, Percent … (100%)” value in test [2] (dose 20%, pH 7.0) came to 60%. Moreover, in test [1] (setting [10]), the “Hair Mass Treated (mg mean ± SEM)” value was found to be 0.455 ± 0.05 mg and the “Percent Inhibition (mean ± SEM)” value worked out at 80.25 ± 2.37%.

Turning to `Nc1ncnc2c1ncn2[C@@H]1O[C@H](CO)[C@@H](O)[C@H]1O` [Adenosine], in test [1] (setting [11]), the “Hair Mass Treated (mg mean ± SEM)” value came out at 1.140 ± 0.12 mg and the “Percent Inhibition (mean ± SEM)” value was 55.28 ± 4.00%.

For the compound `NNC(=O)c1ccncc1` [Isonicotinic acid hydrazide], in test [1] (setting [12]), the “Hair Mass Treated (mg mean ± SEM)” value came out at 1.344 ± 0.18 mg and the “Percent Inhibition (mean ± SEM)” value stood at 35.13 ± 7.98%.

As for `N[C@@H](COC(=O)CCC(=O)O)C(=O)O` [O-Succinyl serine], in test [2] (dose 15%, pH 8.0), the “Homocysteine, Percent of Untreated Control (100%)” value is listed as 228% and the “L-Cystathionine, Percent … (100%)” value is on record as 66%. For the same compound, in test [1] (setting [13]), the “Hair Mass Treated (mg mean ± SEM)” value was found to be 0.710 ± 0.07 mg and the “Percent Inhibition (mean ± SEM)” value was found to be 63.58 ± 4.69%.
